Tested on: eyelashes of healthy female volunteers
Assay: Open-label study of Lumigan applied with an applicator to the upper eyelid margin, four months
Format: in vivo, human
[1] = one drop on applicator tip, applied to lid margin of both upper eyelids before bedtime, through week 12, 25 volunteers, no controls, preliminary findings

CCNC(=O)CCC/C=C\C[C@@H]1[C@@H](/C=C/[C@@H](O)CCc2ccccc2)[C@H](O)C[C@@H]1O [Lumigan®, cyclopentane N-ethyl heptanamide-5-cis-2-(3α-hydroxy-5-phenyl-1trans-pentenyl)-3,5-dihydroxy, [1α,2β,3α,5α]]
Darker and thicker lashes, additional lashes [1]: many grew darker and thicker lashes as well as additional lashes | Eyelash length (longer lashes) [1]: Every participant grew longer lashes | Growth of lower lid lashes and eyebrow hairs (patients applied Lumigan "on their own" to these areas): grew lower lid lashes and eyebrow hairs | Side effects (vision, IOP, ocular irritation, periocular pigmentary changes) (topical application to upper eyelid margin, through week 12, visits up to week 16, preliminary findings): Minimal Side Effects

Reference: US20070286890A1, “Eyelash applicator and method” (priority 2006, published 2007)
